Experiments:
[1] = design: method as in Biochemistry 2021, 60, 32, 2492–2507; settings: ref Biochemistry 2021, 60, 32, 2492–2507, cited from earlier work; for Catecholic pKa value relative to L-DOPA x 100: percentage of L-DOPA
[2] = molecular target: L-DOPA 2,3-dioxygenase from S. lincolnensis (LmbB1) (Streptomyces lincolnensis, UniProt Q54354); design: method as in Biochemistry 2021, 60, 32, 2492–2507; settings: percentage of L-DOPA; ref Biochemistry 2021, 60, 32, 2492–2507; cited from earlier work
[3] = design: method as in Biochemistry 2021, 60, 32, 2492–2507; settings: percentage of L-DOPA; ref Biochemistry 2021, 60, 32, 2492–2507; cited from earlier work
[4] = Determination of pKa values by spectrophotometric titration; settings: first catecholic deprotonation; determined spectroscopically from pH 3 to 12.5
Protocol: A buffer system utilizing five different buffers was prepared to cover the pH range of 3.0 to 12.50. A Thermo Scientific Orion Star A211 pH meter was used to measure and determine the pH of each buffer. The pH meter was calibrated using three- and four-point calibration with pH values of 4.00, 7.01, and 10.01 and 4.00, 7.01, 10.01, and 12.00, respectively.
The buffer systems were prepared as previously described and included: NaOAc/HOAc buffers (C = 0.1 M; I = 0.1 M) were used to cover the pH range of 3.0 to 5.50. KH2PO4/K2HPO4 buffers (C = 0.05 M; I = 0.1 M) were used to cover the pH range of 6.00 to 8.00. CHES buffers (C = 0.05 M; I = 0.1 M) were used to cover the pH range of 8.50 to 10.50. Na2HPO4/Na3PO4 buffers (C = 0.05 M; I = 0.1 M) were used to cover the pH range of 11.00 to 12.00. KCl buffers (C = 0.1 M; I = 0.1 M) were used to cover the pH range of 12.00 to 12.50.
The absorbance spectra of the compounds were determined at each pH as previously described. Briefly, a stock solution was prepared for each compound by weighing 2 mg of the compound using a high-precision analytical balance. Each compound was then dissolved in DMSO at a concentration of 10 mM. A UV-transparent 96-well microplate (Corning clear acrylic 96-well UV plate with a UV-transparent flat bottom) was loaded with 196 μL of buffer solution and 4 μL of the catechol stock in each well to get a final concentration of 200 μM. DMSO (4 μL) was added to 196 μL of the appropriate buffer to produce a blank solution for each buffer.
The 96-well plate was loaded into the microplate reader and incubated at 30 °C and shaken for 10 min before the reading. Absorbance readings were completed by using a Synergy HTX 15032517 microplate reader. Each well was read at wavelengths from 210 to 600 nm with 2-nm increments for each scan over a duration of 60 min.
The data were analyzed as previously described. Raw UV-spectra scans were exported to the Excel program. They were first processed by subtracting the reading of the blank solutions from the reading of each compound at the corresponding wavelengths. […] Finally, the spectral difference between the pH 3.0 buffer and the spectra at all other pH values was plotted. Additionally, the spectral difference between the pH 4.0 buffer and the spectra at all other higher pH values was plotted. The wavelengths for the maximum positive and negative absorbance were determined by using the graphs of the spectral difference plots, both for the pH 3.0 and pH 4.0 spectral difference plots. The absolute maximum positive and total absorbance differences at these chosen wavelengths were plotted against the pH of each buffer. The data were imported into the Origin 6.0 program, and the pK a values were determined with a nonlinear regression using eq : 1 Absorbancetotal=εHA−εA−[10^(pH−pKa)]/1+10^(pH−pKa)×[St]
εHA is the extinction coefficients of the acid form of the compound, and εA ^– is the extinction coefficient of the base form of the compound (i.e., the minima and maxima of the absorbance difference curve, respectively), and [S t] is the total compound concentration.

[5] = design: method as in Biochemistry 2021, 60, 32, 2492–2507; settings: percentage of L-DOPA; ref Biochemistry 2021, 60, 32, 2492–2507; cited from earlier work; remark: listed apart in the source
[6] = Cyclic voltammetry (redox potentials on a GCE); format: physicochemical; settings: GCE (d = 2 mm)
Excerpt: Reduction and oxidation potentials were experimentally performed by cyclic voltammetry (CV) at biological pH 7.4, as previously described. All samples were run on a CH Instruments 600E Potentiostat in a one-compartment cell equipped with a three-electrode system arrangement. The three-electrode system included a saturated calomel electrode as the reference electrode, a platinum wire as the auxiliary electrode, and a glassy carbon electrode (GCE, d = 2 mm) as the working electrode. The GCE was polished between each sample scan with an aqueous slurry of alumina powder on a microcloth pad. The electrodes were rinsed with distilled water prior to the next scan. All scans were conducted under nitrogen for oxygen displacement and at room temperature (rt, 25 ± 1 °C). All samples were prepared as close to the scan as possible (approximately 2 min each). Each sample (5 mL) contained 0.1 mM catecholic substrate and 1 μM DMSO in 0.1 M phosphate buffer at a pH of 7.4 or 6.0. […] The cyclic voltammograms for the compounds at both pH 6.0 and 7.4 are available in Figures S40–S51.

[7] = molecular target: L-DOPA 2,3-dioxygenase from S. hygroscopicus jingganensis (ShjDDO) (Streptomyces hygroscopicus, UniProt H2JL11); design: method as in Biochemistry 2021, 60, 32, 2492–2507; settings: percentage of L-DOPA; ref Biochemistry 2021, 60, 32, 2492–2507; cited from earlier work
Sequence of L-DOPA 2,3-dioxygenase from S. hygroscopicus jingganensis (ShjDDO) (H2JL11 1-162): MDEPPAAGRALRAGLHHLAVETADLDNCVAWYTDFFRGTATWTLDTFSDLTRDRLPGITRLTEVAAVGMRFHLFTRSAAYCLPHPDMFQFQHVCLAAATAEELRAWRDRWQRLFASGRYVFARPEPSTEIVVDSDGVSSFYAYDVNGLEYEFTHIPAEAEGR

[8] = test system: O=C(O)CCc1cc(O)c(O)cc1Br; assay: UV-visible steady-state assay of L-DOPA 2,3-dioxygenase (ShjDDO); format: biochemical, Streptomyces hygroscopicus jingganensis; settings: other: S. hygroscopicus jingganensis enzyme
Protocol: (§1) Purified, reconstituted L-DOPA 2,3-dioxygenases were assessed for activity by monitoring the cleavage of catecholic substrates using UV–visible spectroscopy. 3,4-Dihydroxyhydrocinnamic acid (DHHCA, 3) was purchased from Sigma-Aldrich. 6-CyanoDHHCA (5) and 6-bromoDHHCA (4) were synthesized as described above.
(§2) Molecular oxygen (AirGas) was bubbled directly into the reaction buffer through a glass-bonded silica gas diffuser (Bubblemac Industries, Inc.) or as a gas mixture blended with air (AirGas). Solutions were bubbled with oxygen for several minutes prior to use and for the duration of the experiment. To determine the K M for oxygen (i.e., K MO2), L-DOPA 2,3-dioxygenases (0.25–4.0 μM) were reacted with a saturating concentration of the catecholic substrate DHHCA/6-X-DHHCA derivatives (2–10× the K M sufficient to achieve k cat) and various oxygen concentrations (21–100% or 270–1300 μM at 22 °C). The concentration of oxygen was varied by changing the percentage of oxygen in the blend using a galvanic oxygen sensor and oxygen monitor (AirGas) and then bubbling solutions, as described above. Molecular oxygen percentages were converted to molar concentrations using a reference temperature of 22 °C. The reaction of L-DOPA 2,3-dioxygenases with DHHCA/6-X-DHHCA derivatives as a function of oxygen concentration was followed by the appearance of the steady-state cleavage product by using UV–visible spectroscopy.
(§3) The extinction coefficients for steady-state cleavage products of DHHCA and synthetic 6-X-DHHCA derivatives were determined by reacting various concentrations of DHHCA/6-X-DHHCA derivatives at 22 °C with a 10-fold stoichiometric excess of enzyme (quantified by Fe^II–see Reconstitution) in 50 mM HEPES buffer with 154 mM NaCl at pH 7.5, bubbled with 100% oxygen to a final concentration of 780–910 μM, depending on the volume of oxygenated buffer that comprised the reaction (60–70%). Substrate solutions were prepared from authentic synthetic standards using an analytical balance, and reactions were run to completion as assessed by the appearance of the steady-state product. The λmax and extinction coefficients of DHHCA, 6-cyanoDHHCA, and 6-bromoDHHCA were determined herein as ε380 = 40 740 ± 820 M^–1cm^–1, ε385 = 33 256 ± 484 M^–1cm^–1, and ε380 = 35 282 ± 1190 M^–1cm^–1, respectively (Figure S52).
(§4) Steady-state kinetic data were obtained through a UV–visible spectroscopic assay. Initial rates were obtained from the slopes of the linear regions of the progress curves and plotted versus substrate concentration to yield a hyperbola, which was analyzed using the Michaelis–Menten expression and nonlinear least-squares fitting (NLSF) with Origin 6.0 (Microcal). Two possible derivations of the Michaelis–Menten expression were used: 1) the traditional expression y = k cat × x/(K M + x), where y is Rate/E 0 or the rate of product formation (μM/min) divided by the starting enzyme concentration (μM), x is substrate concentration (μM) and k SP (also known as k cat × K M ^–1)–that is, the second-order rate constant of enzyme and substrate–is extracted from the fitted constants; or 2) the alternative derivation that extracts k SP and k cat directly from the fit: y = (k SP × x)/((1 + k SP × x)/k cat), and where y is Rate/E 0 or the rate of product formation (μM/min) divided by the starting enzyme concentration (μM), x is substrate concentration (μM), k SP is equivalent to k cat×K M ^–1, and K M is extracted from k cat/k cat×K M ^–1.

[9] = test system: O=C(O)CCc1ccc(O)c(O)c1; assay: as above; format: biochemical, Streptomyces hygroscopicus jingganensis; settings: other: S. hygroscopicus jingganensis enzyme
Protocol: as §1, §2, §3, §4

[10] = test system: N#Cc1cc(O)c(O)cc1CCC(=O)O; assay: as above; format: biochemical, Streptomyces hygroscopicus jingganensis; settings: other: S. hygroscopicus jingganensis enzyme
Protocol: as §1, §2, §3, §4

[11] = substrate: N#Cc1cc(O)c(O)cc1CCC(=O)O; assay: UV-visible steady-state assay of L-DOPA 2,3-dioxygenase (LmbB1); format: biochemical, Streptomyces lincolnensis; settings: other: S. lincolnensis enzyme, pH 7.5, 22 °C
Protocol: as §1
as §2, with “Molecular oxygen percentages were converted to molar concentrations using a reference temperature of 22 °C. The reaction of L-DOPA 2,3-dioxygenases with DHHCA/6-X-DHHCA derivatives as a function of oxygen concentration was followed by the appearance of the steady-state cleavage product by using UV–visible spectroscopy.” left out
as §3, with “S52). […]” for “S52).”

[12] = substrate: O=C(O)CCc1cc(O)c(O)cc1Br; assay: as above; format: biochemical, Streptomyces lincolnensis; settings: other: S. lincolnensis enzyme, pH 7.5, 22 °C
Protocol: as §1
as §2, with “Molecular oxygen percentages were converted to molar concentrations using a reference temperature of 22 °C. The reaction of L-DOPA 2,3-dioxygenases with DHHCA/6-X-DHHCA derivatives as a function of oxygen concentration was followed by the appearance of the steady-state cleavage product by using UV–visible spectroscopy.” left out
as §3, with “S52). […]” for “S52).”

[13] = substrate: O=C(O)CCc1ccc(O)c(O)c1; assay: as above; format: biochemical, Streptomyces lincolnensis; settings: other: S. lincolnensis enzyme, pH 7.5, 22 °C
Protocol: as §1
as §2, with “Molecular oxygen percentages were converted to molar concentrations using a reference temperature of 22 °C. The reaction of L-DOPA 2,3-dioxygenases with DHHCA/6-X-DHHCA derivatives as a function of oxygen concentration was followed by the appearance of the steady-state cleavage product by using UV–visible spectroscopy.” left out
as §3, with “S52). […]” for “S52).”

[14] = saturating catecholic substrate, 22 °C, pH 7.5

NCCc1ccc(O)c(O)c1 [Dopamine (DA, 2), dopamine]
Catecholic pKa value relative to L-DOPA x 100 [1]: 102%
kSP, O2 (μM^-1 min^-1) at pH 7.5 relative to L-DOPA x 100 for LmbB1 [2]: 6%
CSEV (Å^3) relative to L-DOPA x 100 [3]: 84%
pK a value [4]: 8.99 ± 0.05
E1/2 (mV) at pH 7.4 relative to L-DOPA x 100 [5]: 58%
(E p)a Oxidation ([6]; pH 6.0): 354 mV
(E p)c Reduction ([6]; pH 6.0): 84 mV
E1/2 ([6]; pH 6.0): 219 mV
Ipa/Ipc ([6]; pH 6.0): 2.89
ΔE p ([6]; pH 6.0): 270 mV
(E p)a Oxidation ([6]; pH 7.4): 178 mV
(E p)c Reduction ([6]; pH 7.4): 54 mV
E1/2 ([6]; pH 7.4): 116 mV
Ipa/Ipc ([6]; pH 7.4): 1.32
ΔE p ([6]; pH 7.4): 124 mV

N#Cc1cc(O)c(O)cc1CCN [Compound 6-cyanoDA]
Catecholic pKa value relative to L-DOPA x 100 [1]: 80%
pK a value of dopamine counterpart ([1]; similarly 6-substituted dopamine): 7.03 ± 0.06
kSP, O2 (μM^-1 min^-1) at pH 7.5 relative to L-DOPA x 100 for LmbB1 [2]: 16%
kSP, O2 (μM^-1 min^-1) at pH 7.5 relative to L-DOPA x 100 for ShjDDO [7]: 3%
CSEV (Å^3) relative to L-DOPA x 100 [3]: 94%
E1/2 (mV) at pH 7.4 relative to L-DOPA x 100 [5]: 129%

L-DOPA 2,3-dioxygenase from S. hygroscopicus jingganensis (ShjDDO) (Streptomyces hygroscopicus subsp. jinggangensis 5008)
Km ([8]; pH 7.5, 22 °C): 926 ± 169 µM
Km [8, 14]: 759 ± 66 µM
Km ([9]; pH 7.5, 22 °C): 422 ± 94 µM
Km [9, 14]: 1059 ± 246 µM
Km ([10]; pH 7.5, 22 °C): 228 ± 53 µM
Km [10, 14]: 1019 ± 236 µM

B1: L-DOPA 2,3-dioxygenase from S. lincolnensis (LmbB1) (Streptomyces lincolnensis) (protein)
chain: MPSVKSMPPVSVHHVGVQTADLDNSISWYQEFFGCTVSWTLDTFSALTHSRLPGIERLAELRYGDVRFHHIGVKSGAAERSPAEANQFQHVCFAVGSPTELEAWRSRWLELYARGRWTFAVPERATDIDVDKDGVRSFYALDPNGLEYEFTYVPDGPR
Km [11]: 131 ± 16 µM
Km [12]: 205 ± 24 µM
Km [13]: 922 ± 152 µM

Reference: publication PMC12311729, “Probing the Mechanism of L‑DOPA 2,3-Dioxygenase Using Synthetic Derivatives of 3,4-Dihydroxyhydrocinnamic Acid” (ACS Omega, 2025)
